Data reported in patent US7816331B2, “Substituted indazole-O-glucosides” (Janssen Pharmaceutica NV, priority 2003, dated 2010).

Columns and labels:
human SGLT1 = target: T1, human SGLT1 (Homo sapiens, UniProt P13866); assay: Cell-based assay for sodium-dependent glucose transport (14C-AMG uptake), CHOK-SGLT1; settings: 10 uM compound, CHO-K1 cells stably expressing human SGLT1, Na-dependent 14C-AMG uptake; for inhibition at 10 µM: read-out: CHOK-SGLT1 % Inh (10 uM)
T1 construct: expressed in transfected cells
T1 sequence (P13866 1-664): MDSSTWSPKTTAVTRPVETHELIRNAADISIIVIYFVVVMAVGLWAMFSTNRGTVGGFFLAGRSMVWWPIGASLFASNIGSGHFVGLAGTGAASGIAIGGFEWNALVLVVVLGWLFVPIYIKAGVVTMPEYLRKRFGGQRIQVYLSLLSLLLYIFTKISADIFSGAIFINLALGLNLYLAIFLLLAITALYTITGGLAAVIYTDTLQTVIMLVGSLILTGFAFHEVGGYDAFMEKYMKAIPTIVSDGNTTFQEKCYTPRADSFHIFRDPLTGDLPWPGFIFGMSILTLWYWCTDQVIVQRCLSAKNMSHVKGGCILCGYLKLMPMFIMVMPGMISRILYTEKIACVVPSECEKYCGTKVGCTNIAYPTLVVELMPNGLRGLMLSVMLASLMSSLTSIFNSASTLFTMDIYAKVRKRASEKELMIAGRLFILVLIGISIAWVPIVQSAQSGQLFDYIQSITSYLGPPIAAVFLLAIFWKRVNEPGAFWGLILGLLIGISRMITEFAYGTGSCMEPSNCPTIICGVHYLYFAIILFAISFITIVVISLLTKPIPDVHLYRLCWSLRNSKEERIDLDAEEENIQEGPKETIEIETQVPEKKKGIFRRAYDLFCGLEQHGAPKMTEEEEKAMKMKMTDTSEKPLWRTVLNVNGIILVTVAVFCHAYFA
Protocol: (§1) Cloning of the human SGLT1 and human SGLT2 cDNAs and construction of the mammalian expression vector: The human SGLT1 cDNA (Genbank M24847) was cloned from human small intestine. Human SGLT2 cDNA (Genbank M95549) was cloned from human kidney. Both full cDNAs were subcloned into pcDNA and sequenced to verify the integrity of the construct. Generation of CHO-K1 cells stably expressing human SGLT1 or human SGLT2: Transfection of CHO-K1 cells was performed using DMRIE-C reagent (Life Technologies, Gaithersburg, Md.). Transfectants were then selected in the presence of the antibiotic G418 (Gibco-BRL, Grand Island, N.Y.) at 400 μg/ml. Individual clones were then characterized using the functional assay described below. Cell-based assay for sodium-dependent glucose transport: Cell lines stably expressing human SGLT1 or SGLT2 were then used for functional analysis of Na^+-dependent glucose uptake. Briefly, cells were plated at a density of 65,000 cells per well in a 96-well plate and allowed to grow for 48 hours. Cells were subsequently washed one time with Assay Buffer (50 mM HEPES pH 7.4, 20 mM Tris, 5 mM KCl, 1 mM MgCl2, 1 mM CaCl2 and 137 mM NaCl) and treated with compound in the absence or presence of NaCl for 15 minutes. Cells were then labeled with ^14C-α-methylglucopyranoside (AMG, Sigma, St. Louis, Mo.), a non-metabolizable glucose analog specific for sodium-dependent glucose transporters as previously described (Peng, H. and Lever J. E. Post-transcriptional regulation of Na^+/glucose cotransporter (SGLT1) gene expression in LLC-PK1 cells. J Biol Chem 1995; 270:20536-20542.). After 2 hours the labelled cells were washed three times with ice-cold PBS. After aspiration, cells were solubilized using Microscint 20 (Packard, Meriden, Conn.) and Na-dependent ^14C-AMG uptake was quantified by measuring radioactivity. Plates were counted in a TopCount (Packard, Meriden, Conn.). Results are reported as the % inhibition or IC50 value from a representative experiment. Variability for the functional assay was typically within 20%.

human SGLT2 = target: T2, human SGLT2 (Homo sapiens, UniProt P31639); assay: Cell-based assay for sodium-dependent glucose transport (14C-AMG uptake), CHOK-SGLT2; settings: for IC50: CHO-K1 cells stably expressing human SGLT2, Na-dependent 14C-AMG uptake, read-out: CHOK-SGLT2 IC50 (uM) ± SEM; for inhibition at 10 µM: CHO-K1, read-out: CHOK-SGLT2 % Inh. @ 10 μM
T2 construct: expressed in transfected cells
T2 sequence (P31639 1-672): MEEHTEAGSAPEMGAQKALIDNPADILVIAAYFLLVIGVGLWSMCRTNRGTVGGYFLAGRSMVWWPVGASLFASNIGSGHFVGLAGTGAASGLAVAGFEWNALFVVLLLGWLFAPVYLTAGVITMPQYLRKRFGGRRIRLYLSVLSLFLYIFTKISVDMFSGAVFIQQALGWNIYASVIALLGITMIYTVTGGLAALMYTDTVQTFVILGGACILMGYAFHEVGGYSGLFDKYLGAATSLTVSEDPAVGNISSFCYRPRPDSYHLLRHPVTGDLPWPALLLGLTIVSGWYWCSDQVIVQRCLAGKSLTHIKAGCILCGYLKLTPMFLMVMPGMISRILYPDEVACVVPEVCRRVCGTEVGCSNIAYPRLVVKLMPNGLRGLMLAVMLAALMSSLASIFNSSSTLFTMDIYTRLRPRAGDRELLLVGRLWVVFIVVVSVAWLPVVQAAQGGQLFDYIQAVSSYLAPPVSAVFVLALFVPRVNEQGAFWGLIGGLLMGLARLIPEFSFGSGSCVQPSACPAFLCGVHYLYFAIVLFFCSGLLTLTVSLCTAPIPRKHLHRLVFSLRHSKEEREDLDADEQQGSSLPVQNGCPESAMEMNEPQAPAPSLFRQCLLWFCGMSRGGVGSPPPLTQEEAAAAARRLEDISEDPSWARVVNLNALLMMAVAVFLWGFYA
Protocol: as §1, with “experiment.” for “experiment. Variability for the functional assay was typically within 20%.”

Row | Compound | inhibition at 10 µM (human SGLT1) | IC50 (human SGLT2) | inhibition at 10 µM (human SGLT2) | CHOK-SGLT1 % Inh (10 uM) (human SGLT1)
1 | CC(=O)OC[C@H]1O[C@@H](Oc2cc(C)cc3[nH]nc(CCc4ccc5c(c4)CCO5)c23)[C@H](O)[C@@H](O)[C@@H]1O [Example 2, 2-{3-[2-(2,3-Dihydro-benzofuran-5-yl)-ethyl]-6-methyl-1H-indazol-4-yloxy}-6-O— acetyl-β-D-glucopyranoside] | 14% | – | 69% | –
2 | Cc1cc(OC2OC(CO)C(O)C(O)C2O)c2c(CCc3ccc4ccccc4c3)n[nH]c2c1 [Example 4, 2-[6-Methyl-3-(2-naphthalen-2-yl-ethyl)-1H-indazol-4-yloxy]-β-D-glucopyranoside] | 18% | 1.95 ± 0.816 µM | – | –
3 | CCOc1ccc(CCc2n[nH]c3cc(C)cc(OC4OC(CO)C(O)C(O)C4O)c23)cc1 [Example 10, 2-{3-[2-(4-Ethoxy-phenyl)-ethyl]-6-methyl-1H-indazol-4-yloxy}β-D-glucopyranoside] | 5% | 2 ± 0.071 µM | – | –
4 | Cc1cc(OC2OC(CO)C(O)C(O)C2O)c2c(CCc3ccc(C(F)(F)F)cc3)n[nH]c2c1 [Example 12, 2-{3-[2-(4-Trifluoromethyl-phenyl)-ethyl]-6-methyl-1H-indazol-4-yloxy}β-D-glucopyranoside] | – | – | 36% | inactive
5 | CC(=O)OC[C@H]1O[C@@H](Oc2cc(C)cc3[nH]nc(CCc4ccc5occc5c4)c23)[C@H](O)[C@@H](O)[C@@H]1O [Example 14, 2-[3-(2-Benzofuran-5-yl-ethyl)-6-methyl-1H-indazol-4-yloxy]-6-O-acetyl-β-D-glucopyranoside] | 42% | 1.5 ± 0.071 µM | – | –
6 | Cc1cc(OC2OC(CO)C(O)C(O)C2O)c2c(CCc3ccc4c(c3)CCO4)nn(C)c2c1 [Example 15, 2-{3-[2-(2,3-Dihydro-benzofuran-5-yl)-ethyl]-1,6-dimethyl-1H-indazol-4-yloxy}-β-D-glucopyranoside] | 47% | 0.754 ± 0.069 µM | – | –
7 | Cc1cc(OC2OC(CO)C(O)C(O)C2O)c2c(CCc3ccc(NS(C)(=O)=O)cc3)n[nH]c2c1 [Example 16, 2-{3-[2-(4-Methanesulfonylamino-phenyl)-ethyl]-6-methyl-1H-indazol-4-yloxy}β-D-glucopyranoside] | – | – | 42% | inactive

Further lines, results first:

Row | inhibition at 10 µM (human SGLT1) | IC50 (human SGLT2) | inhibition at 10 µM (human SGLT2) | CHOK-SGLT1 % Inh (10 uM) (human SGLT1) | Compound
8 | 48% | 0.458 ± 0.061 µM | – | – | Cc1cc(O[C@@H]2O[C@H](CO)[C@@H](O)[C@H](O)[C@H]2O)c2c(CCc3ccc4c(c3)CCO4)n[nH]c2c1 [Example 1, 2-{3-[2-(2,3-Dihydro-benzofuran-5-yl)-ethyl]-6-methyl-1H-indazol-4-yloxy}β3-D-glucopyranoside]
9 | – | 1.59 ± 0.025 µM | – | inactive | Cc1cc(O[C@@H]2O[C@H](CO)[C@@H](O)[C@H](O)[C@H]2O)c2c(CCc3ccc4c(c3)OCCO4)n[nH]c2c1 [Example 3, 2-{3-[2-(2,3-Dihydro-benzo[1,4]dioxin-6-yl)-ethyl]-6-methyl-1H-indazol-4-yloxy}β-D-glucopyranoside]
10 | – | 3.25 ± 0.461 µM | – | inactive | Cc1cc(OC2OC(CO)C(O)C(O)C2O)c2c(CCc3ccc4c(c3)CCCC4)n[nH]c2c1 [Example 5, 2-{6-Methyl-3-[2-(5,6,7,8-tetrahydro-naphthalen-2-yl)-ethyl]-1H-indazol-4-yloxy}-β-D-glucopyranoside]
11 | 7% | 1 µM | – | – | COc1ccc2cc(CCc3n[nH]c4cc(C)cc(OC5OC(CO)C(O)C(O)C5O)c34)ccc2c1 [Example 6, 2-{3-[2-(6-Methoxy-naphthalen-2-yl)-ethyl]-6-methyl-1H-indazol-4-yloxy}-β-D-glucopyranoside]
12 | – | – | 43% | inactive | COC1CCc2cc(CCc3n[nH]c4cc(C)cc(OC5OC(CO)C(O)C(O)C5O)c34)ccc2C1 [Example 7, 2-{3-[2-(6-Methoxy-5,6,7,8-tetrahydro-naphthalen-2-yl)-ethyl]-6-methyl-1H-indazol-4-yloxy}β-D-glucopyranoside]
13 | – | – | 67% | inactive | COc1ccc2c(c1)CCC(CCc1n[nH]c3cc(C)cc(OC4OC(CO)C(O)C(O)C4O)c13)C2 [Example 8, 2-{3-[2-(6-Methoxy-1,2,3,4-tetrahydro-naphthalen-2-yl)-ethyl]-6-methyl-1H-indazol-4-yloxy}-β-D-glucopyranoside]
14 | 11% | 3.05 ± 0.319 µM | – | – | COc1ccc(CCc2n[nH]c3cc(C)cc(OC4OC(CO)C(O)C(O)C4O)c23)cc1 [Example 9, 2-{3-[2-(4-Methoxy-phenyl)-ethyl]-6-methyl-1H-indazol-4-yloxy}β-D-glucopyranoside]
15 | 12% | – | 66% | – | Cc1cc(OC2OC(CO)C(O)C(O)C2O)c2c(CCc3ccc(Cl)cc3)n[nH]c2c1 [Example 11, 2-{3-[2-(4-Chloro-phenyl)-ethyl]-6-methyl-1H-indazol-4-yloxy}-β-D-glucopyranoside]
16 | 52% | – | – | – | Cc1cc(O[C@@H]2OC(CO)[C@@H](O)[C@H](O)[C@H]2O)c2c(CCc3ccc4occc4c3)n[nH]c2c1 (stereo partly drawn) [Example 13, 2-[3-(2-Benzofuran-5-yl-ethyl)-6-methyl-1H-indazol-4-yloxy]-β-D-glucopyranoside]
